Assay results reported in paper PMC4539532 (Bioorganic & medicinal chemistry letters, 2015).

Tests used:
[1] = cited from earlier work; for Tmax for brain: rat brain, intraperitoneal injection
[2] = in vitro microsomal stability; details: n=2, T1/2=Ln2/κ
mGlu4 = mGlu4 (Homo sapiens, UniProt Q14833); experiment: competitive binding assay with [^3H]2 in mGlu4 transfected CHO cells; details: 14 versus 13; 23 versus 2
mGlu2 = mGlu2 (Homo sapiens, UniProt Q14416); experiment: selectivity functional assay on mGlu2; format: cell-based
mGlu2, sequence (Q14416 19-872): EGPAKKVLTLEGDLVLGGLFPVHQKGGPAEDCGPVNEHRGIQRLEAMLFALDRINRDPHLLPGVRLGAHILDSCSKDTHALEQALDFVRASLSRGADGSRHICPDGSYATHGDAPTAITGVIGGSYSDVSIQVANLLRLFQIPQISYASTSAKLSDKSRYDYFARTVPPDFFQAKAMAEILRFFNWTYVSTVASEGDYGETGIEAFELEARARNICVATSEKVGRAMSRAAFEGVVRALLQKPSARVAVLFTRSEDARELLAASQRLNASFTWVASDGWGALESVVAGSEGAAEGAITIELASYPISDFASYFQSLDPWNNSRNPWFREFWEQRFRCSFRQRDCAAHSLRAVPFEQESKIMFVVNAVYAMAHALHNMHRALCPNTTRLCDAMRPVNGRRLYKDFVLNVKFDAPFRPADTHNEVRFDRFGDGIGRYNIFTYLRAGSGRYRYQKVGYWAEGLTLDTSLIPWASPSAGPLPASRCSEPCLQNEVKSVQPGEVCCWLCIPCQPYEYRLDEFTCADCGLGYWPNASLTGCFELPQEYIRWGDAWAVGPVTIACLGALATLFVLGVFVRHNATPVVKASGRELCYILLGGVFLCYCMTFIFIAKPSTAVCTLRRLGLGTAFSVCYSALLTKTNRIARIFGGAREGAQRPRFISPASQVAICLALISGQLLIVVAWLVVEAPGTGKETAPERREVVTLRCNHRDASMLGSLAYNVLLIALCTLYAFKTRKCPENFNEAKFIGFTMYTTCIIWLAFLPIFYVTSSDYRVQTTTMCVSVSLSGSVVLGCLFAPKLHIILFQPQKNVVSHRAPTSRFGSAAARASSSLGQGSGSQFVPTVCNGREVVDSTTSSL

mGlu1 = mGlu1 (Homo sapiens, UniProt Q13255); experiment: selectivity functional assay on mGlu1; format: cell-based
mGlu1, sequence (Q13255 19-1194): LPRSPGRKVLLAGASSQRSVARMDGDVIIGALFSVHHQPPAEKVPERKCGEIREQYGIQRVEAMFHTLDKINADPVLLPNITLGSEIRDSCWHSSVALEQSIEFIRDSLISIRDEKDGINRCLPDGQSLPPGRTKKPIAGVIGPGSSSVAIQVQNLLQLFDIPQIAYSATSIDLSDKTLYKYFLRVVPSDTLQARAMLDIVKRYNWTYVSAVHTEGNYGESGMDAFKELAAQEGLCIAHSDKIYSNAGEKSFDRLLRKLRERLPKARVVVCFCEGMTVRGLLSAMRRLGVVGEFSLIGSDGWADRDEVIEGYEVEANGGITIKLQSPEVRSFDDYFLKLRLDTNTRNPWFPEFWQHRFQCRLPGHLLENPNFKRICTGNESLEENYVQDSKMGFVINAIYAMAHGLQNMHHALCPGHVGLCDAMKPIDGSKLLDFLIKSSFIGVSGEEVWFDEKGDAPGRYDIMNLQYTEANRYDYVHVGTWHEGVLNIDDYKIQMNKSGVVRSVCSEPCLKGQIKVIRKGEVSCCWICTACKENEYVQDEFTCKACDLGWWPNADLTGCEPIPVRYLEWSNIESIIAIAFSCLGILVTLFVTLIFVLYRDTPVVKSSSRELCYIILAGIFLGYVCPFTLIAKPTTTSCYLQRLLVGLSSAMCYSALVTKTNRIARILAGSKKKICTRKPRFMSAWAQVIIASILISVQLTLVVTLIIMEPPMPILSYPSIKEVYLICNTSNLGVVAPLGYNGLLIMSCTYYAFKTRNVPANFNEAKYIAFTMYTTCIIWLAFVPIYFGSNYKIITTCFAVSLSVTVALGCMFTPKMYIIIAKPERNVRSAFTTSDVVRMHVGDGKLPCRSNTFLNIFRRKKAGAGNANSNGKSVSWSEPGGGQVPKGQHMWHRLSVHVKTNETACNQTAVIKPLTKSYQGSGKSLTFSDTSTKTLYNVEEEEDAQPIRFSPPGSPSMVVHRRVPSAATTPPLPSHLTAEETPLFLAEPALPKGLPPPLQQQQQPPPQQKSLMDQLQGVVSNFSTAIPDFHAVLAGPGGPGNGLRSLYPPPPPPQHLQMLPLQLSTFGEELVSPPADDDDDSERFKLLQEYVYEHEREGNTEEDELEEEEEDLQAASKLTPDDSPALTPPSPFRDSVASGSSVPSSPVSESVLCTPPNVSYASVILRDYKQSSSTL

mGlu8 = mGlu8 (Homo sapiens, UniProt O00222); experiment: selectivity functional assay on mGlu8; format: cell-based
mGlu5 = mGlu5 (Homo sapiens, UniProt P41594); experiment: selectivity functional assay on mGlu5; format: cell-based
mGlu5, sequence (P41594 21-1212): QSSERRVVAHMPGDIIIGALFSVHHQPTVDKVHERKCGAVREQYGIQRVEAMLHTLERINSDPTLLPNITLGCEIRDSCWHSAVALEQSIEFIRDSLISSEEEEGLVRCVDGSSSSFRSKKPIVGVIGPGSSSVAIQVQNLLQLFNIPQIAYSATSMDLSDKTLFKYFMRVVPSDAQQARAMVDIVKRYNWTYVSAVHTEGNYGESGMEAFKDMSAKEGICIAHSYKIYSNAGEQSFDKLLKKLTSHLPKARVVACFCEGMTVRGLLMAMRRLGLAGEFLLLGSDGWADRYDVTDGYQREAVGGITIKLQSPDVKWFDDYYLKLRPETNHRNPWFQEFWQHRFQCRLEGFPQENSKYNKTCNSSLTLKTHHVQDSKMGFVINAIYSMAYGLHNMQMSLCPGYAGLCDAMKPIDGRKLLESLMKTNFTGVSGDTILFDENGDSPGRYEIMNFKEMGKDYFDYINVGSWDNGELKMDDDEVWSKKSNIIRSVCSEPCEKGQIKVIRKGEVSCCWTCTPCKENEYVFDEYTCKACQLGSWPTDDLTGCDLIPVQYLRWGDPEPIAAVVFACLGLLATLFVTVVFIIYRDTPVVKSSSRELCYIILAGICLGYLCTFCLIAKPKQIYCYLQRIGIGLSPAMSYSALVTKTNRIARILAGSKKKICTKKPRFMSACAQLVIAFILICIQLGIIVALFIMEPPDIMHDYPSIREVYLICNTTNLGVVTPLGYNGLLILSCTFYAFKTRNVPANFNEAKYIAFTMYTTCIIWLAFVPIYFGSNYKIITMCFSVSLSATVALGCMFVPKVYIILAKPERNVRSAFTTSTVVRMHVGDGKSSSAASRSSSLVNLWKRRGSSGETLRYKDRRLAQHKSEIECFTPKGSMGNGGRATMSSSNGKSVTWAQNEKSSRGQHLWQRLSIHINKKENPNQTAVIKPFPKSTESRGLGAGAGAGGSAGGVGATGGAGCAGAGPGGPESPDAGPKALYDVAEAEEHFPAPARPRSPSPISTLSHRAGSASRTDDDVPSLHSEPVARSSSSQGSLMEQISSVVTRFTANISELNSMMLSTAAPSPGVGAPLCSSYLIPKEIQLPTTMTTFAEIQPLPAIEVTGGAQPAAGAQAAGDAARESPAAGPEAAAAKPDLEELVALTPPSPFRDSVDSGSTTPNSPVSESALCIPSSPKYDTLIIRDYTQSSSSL

mGlu6 = mGlu6 (Homo sapiens, UniProt O15303); experiment: selectivity functional assay on mGlu6; format: cell-based
mGlu6, sequence (O15303 25-877): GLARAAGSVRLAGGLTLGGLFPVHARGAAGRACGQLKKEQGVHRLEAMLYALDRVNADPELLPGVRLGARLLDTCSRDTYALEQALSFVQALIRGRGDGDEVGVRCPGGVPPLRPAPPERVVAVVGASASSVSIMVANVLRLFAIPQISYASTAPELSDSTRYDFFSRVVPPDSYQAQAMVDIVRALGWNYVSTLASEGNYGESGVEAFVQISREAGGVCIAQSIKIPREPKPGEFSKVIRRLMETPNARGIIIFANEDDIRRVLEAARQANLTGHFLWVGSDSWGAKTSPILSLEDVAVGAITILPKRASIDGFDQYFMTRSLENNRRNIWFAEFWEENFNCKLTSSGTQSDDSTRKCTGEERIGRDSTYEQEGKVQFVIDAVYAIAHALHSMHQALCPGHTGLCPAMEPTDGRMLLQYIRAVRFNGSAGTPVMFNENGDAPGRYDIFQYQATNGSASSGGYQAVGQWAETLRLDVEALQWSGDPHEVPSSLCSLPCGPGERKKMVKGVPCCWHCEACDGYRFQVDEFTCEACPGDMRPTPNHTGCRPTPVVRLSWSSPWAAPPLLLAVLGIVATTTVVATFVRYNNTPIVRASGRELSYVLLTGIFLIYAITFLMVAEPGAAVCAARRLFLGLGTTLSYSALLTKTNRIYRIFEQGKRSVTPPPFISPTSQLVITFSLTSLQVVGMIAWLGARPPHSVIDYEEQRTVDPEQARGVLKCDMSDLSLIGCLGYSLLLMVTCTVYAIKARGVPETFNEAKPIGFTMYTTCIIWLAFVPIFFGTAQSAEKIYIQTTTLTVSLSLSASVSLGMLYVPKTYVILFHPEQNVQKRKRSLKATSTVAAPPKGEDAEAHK

[3] = PET ligand for PBR, cited from earlier work

mGlu4, sequence (Q14833 33-912): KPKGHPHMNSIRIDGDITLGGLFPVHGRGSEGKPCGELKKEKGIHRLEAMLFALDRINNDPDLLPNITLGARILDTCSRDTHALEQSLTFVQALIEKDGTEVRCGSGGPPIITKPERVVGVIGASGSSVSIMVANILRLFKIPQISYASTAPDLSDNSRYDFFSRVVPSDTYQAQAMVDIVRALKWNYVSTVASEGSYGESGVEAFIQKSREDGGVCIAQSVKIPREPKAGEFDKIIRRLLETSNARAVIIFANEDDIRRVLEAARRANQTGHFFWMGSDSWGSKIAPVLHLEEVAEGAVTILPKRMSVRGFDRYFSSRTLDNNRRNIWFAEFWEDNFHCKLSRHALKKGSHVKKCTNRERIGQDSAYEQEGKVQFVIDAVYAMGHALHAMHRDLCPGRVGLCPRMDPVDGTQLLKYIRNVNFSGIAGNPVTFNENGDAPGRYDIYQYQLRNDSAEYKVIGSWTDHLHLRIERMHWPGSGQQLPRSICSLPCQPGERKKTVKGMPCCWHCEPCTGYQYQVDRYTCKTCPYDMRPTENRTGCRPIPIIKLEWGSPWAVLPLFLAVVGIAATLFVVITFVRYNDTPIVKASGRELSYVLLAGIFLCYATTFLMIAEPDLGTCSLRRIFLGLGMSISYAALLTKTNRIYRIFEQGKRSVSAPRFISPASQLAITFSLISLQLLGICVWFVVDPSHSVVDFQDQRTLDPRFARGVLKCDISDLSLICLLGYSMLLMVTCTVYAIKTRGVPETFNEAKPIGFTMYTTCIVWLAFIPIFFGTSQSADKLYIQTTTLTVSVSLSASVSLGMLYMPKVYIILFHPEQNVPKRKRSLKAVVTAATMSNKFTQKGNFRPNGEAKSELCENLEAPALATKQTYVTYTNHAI

COc1cc(NC(=O)c2ccccn2)ccc1Cl [Compound 2]
Tmax for brain [1]: 30 min
κ (decay constant, slope of log concentration vs time profile) [2]: 0.141

O=C(Nc1cccc(OC(F)F)c1)c1ccccn1 [Compound 3]
Tmax for brain [1]: 30 min
brain:plasma (B/P) partition coefficient ([1]; rat, AUC0–8h, Brain/AUC0–8h, Plasma): 9.9
κ (decay constant, slope of log concentration vs time profile) [2]: 0.132

Cc1ccnc(Nc2nc(-c3cn[nH]c3)c(C)s2)n1 [Compound 4]
κ (decay constant, slope of log concentration vs time profile) [2]: 0.099

CSc1cccc(NC(=O)c2ccccn2)c1 [Compound 14]
fold enhancement in affinity (mGlu4): 2.8 fold

O=C(Nc1ccc(Cl)c(OCF)c1)c1ccccn1 [Compound 23]
fold enhancement in affinity (mGlu4): 1.6 fold
κ (decay constant, slope of log concentration vs time profile) [2]: 0.120

[2H]C([2H])(F)Oc1cc(NC(=O)c2ccccn2)ccc1Cl [Compound 24]
activity against mGlu2 (mGlu2): little activity
activity against mGlu1 (mGlu1): little activity
activity against mGlu8 (mGlu8): little activity
κ (decay constant, slope of log concentration vs time profile) [2]: 0.093
activity against mGlu5 (mGlu5): little activity
activity against mGlu6 (mGlu6): little activity

[2H]C([2H])([18F])Oc1ccc(OC)cc1CN(C(C)=O)c1cc(F)ccc1Oc1ccccc1 [N-(5-fluoro-2-phenoxyphenyl)-N-(2-[^18F]fluoromethoxy-d2-5-methoxybenzyl)acetamide]
half time (T1/2) in the brain ([3]; brain): > 60 min
half time (T1/2) in the plasma ([3]; plasma): 2.575 min
